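Cultured in 96-well plates, cells were exposed to test compound for 48 hours across five concentrations. GI50 is the concentration that inhibits growth by half.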 The source made the active and inactive calls. No stated cut-off is given here; in the data, active = GI50 up to about 1.1 µM and inactive = higher.
What was measured:
Assay in all cases: NCI tumour cell line growth inhibition, 48 h
786-0 = tested on: 786-0
A498 = tested on: A498
A549 = tested on: A549
ACHN = tested on: ACHN
CAKI-1 = tested on: CAKI-1
CCRF-CEM = tested on: CCRF-CEM
COLO 205 = tested on: COLO 205
DLD-1 = tested on: DLD-1
DMS-114 = tested on: DMS-114
DMS-273 = tested on: DMS-273
EKVX = tested on: EKVX
HCC 2998 = tested on: HCC 2998
HCT-116 = tested on: HCT-116
HCT-15 = tested on: HCT-15
HOP-18 = tested on: HOP-18
HOP-92 = tested on: HOP-92
HT-29 = tested on: HT-29
IGROV-1 = tested on: IGROV-1
K562 = tested on: K562
KM12 = tested on: KM12
LOX IMVI = tested on: LOX IMVI
LXFL 529 = tested on: LXFL 529
M14 = tested on: M14
M19-MEL = tested on: M19-MEL
MOLT-4 = tested on: MOLT-4
Malme-3M = tested on: Malme-3M
NCI-H226 = tested on: NCI-H226
NCI-H23 = tested on: NCI-H23
NCI-H460 = tested on: NCI-H460
NCI-H522 = tested on: NCI-H522
OVCAR-3 = tested on: OVCAR-3
OVCAR-8 = tested on: OVCAR-8
RPMI-8226 = tested on: RPMI-8226
RXF 393 = tested on: RXF 393
RXF 631 = tested on: RXF 631
SF-295 = tested on: SF-295
SF-539 = tested on: SF-539
SK-MEL-28 = tested on: SK-MEL-28
SK-MEL-5 = tested on: SK-MEL-5
SK-OV-3 = tested on: SK-OV-3
SN12C = tested on: SN12C
SNB-19 = tested on: SNB-19
SNB-75 = tested on: SNB-75
SNB-78 = tested on: SNB-78
SW-620 = tested on: SW-620
TK-10 = tested on: TK-10
U-251 = tested on: U-251
UACC-257 = tested on: UACC-257
UACC-62 = tested on: UACC-62
UO-31 = tested on: UO-31
HL-60 = tested on: HL-60
HOP-62 = tested on: HOP-62
KM-20L2 = tested on: KM-20L2
OVCAR-4 = tested on: OVCAR-4
OVCAR-5 = tested on: OVCAR-5
SF-268 = tested on: SF-268
SK-MEL-2 = tested on: SK-MEL-2
SR = tested on: SR
XF498 = tested on: XF498

COC(=O)/C(C#N)=C1\NN=NN1CCCc1ccccc1
GI50 (786-0): > 100 µM (inactive)
GI50 (A498): 84.3 µM (inactive)
GI50 (A549): > 100 µM (inactive)
GI50 (ACHN): > 100 µM (inactive)
GI50 (CAKI-1): > 100 µM (inactive)
GI50 (CCRF-CEM): > 100 µM (inactive)
GI50 (COLO 205): > 100 µM (inactive)
GI50 (DLD-1): > 100 µM (inactive)
GI50 (DMS-114): > 100 µM (inactive)
GI50 (DMS-273): > 100 µM (inactive)
GI50 (EKVX): > 100 µM (inactive)
GI50 (HCC 2998): > 100 µM (inactive)
GI50 (HCT-116): > 100 µM (inactive)
GI50 (HCT-15): > 100 µM
GI50 (HOP-18): 90.6 µM (inactive)
GI50 (HOP-92): > 100 µM (inactive)
GI50 (HT-29): > 100 µM (inactive)
GI50 (IGROV-1): > 100 µM (inactive)
GI50 (K562): > 100 µM (inactive)
GI50 (KM12): > 100 µM (inactive)
GI50 (LOX IMVI): > 100 µM (inactive)
GI50 (LXFL 529): > 100 µM (inactive)
GI50 (M14): > 100 µM (inactive)
GI50 (M19-MEL): > 100 µM (inactive)
GI50 (MOLT-4): > 100 µM (inactive)
GI50 (Malme-3M): > 100 µM (inactive)
GI50 (NCI-H226): > 100 µM (inactive)
GI50 (NCI-H23): > 100 µM (inactive)
GI50 (NCI-H460): > 100 µM (inactive)
GI50 (NCI-H522): 13.5 µM (inactive)
GI50 (OVCAR-3): > 100 µM (inactive)
GI50 (OVCAR-8): > 100 µM (inactive)
GI50 (RPMI-8226): > 100 µM (inactive)
GI50 (RXF 393): > 100 µM (inactive)
GI50 (RXF 631): > 100 µM (inactive)
GI50 (SF-295): > 100 µM (inactive)
GI50 (SF-539): > 100 µM (inactive)
GI50 (SK-MEL-28): > 100 µM (inactive)
GI50 (SK-MEL-5): > 100 µM (inactive)
GI50 (SK-OV-3): > 100 µM (inactive)
GI50 (SN12C): > 100 µM (inactive)
GI50 (SNB-19): > 100 µM (inactive)
GI50 (SNB-75): > 100 µM (inactive)
GI50 (SNB-78): > 100 µM (inactive)
GI50 (SW-620): > 100 µM (inactive)
GI50 (TK-10): > 100 µM (inactive)
GI50 (U-251): > 100 µM (inactive)
GI50 (UACC-257): > 100 µM (inactive)
GI50 (UACC-62): > 100 µM (inactive)
GI50 (UO-31): 76.4 µM (inactive)

COc1c2c(c3c(c1C1OC(C)[C@@H](C)O1)CC(C)(C)O3)C(=O)c1ccccc1C2=O (stereo partly specified)
GI50 (786-0): 72.9 µM (inactive)
GI50 (A549): 73.3 µM (inactive)
GI50 (ACHN): 40.5 µM (inactive)
GI50 (CAKI-1): 40.2 µM (inactive)
GI50 (CCRF-CEM): 20.8 µM (inactive)
GI50 (COLO 205): 35.1 µM (inactive)
GI50 (DLD-1): 36.1 µM (inactive)
GI50 (DMS-114): 37.4 µM (inactive)
GI50 (DMS-273): 24.2 µM (inactive)
GI50 (EKVX): > 100 µM (inactive)
GI50 (HCC 2998): 76.2 µM (inactive)
GI50 (HCT-116): 42.7 µM (inactive)
GI50 (HCT-15): 43.1 µM
GI50 (HL-60): 13.5 µM (inactive)
GI50 (HOP-62): > 100 µM (inactive)
GI50 (HOP-92): 16.9 µM (inactive)
GI50 (HT-29): 31.6 µM (inactive)
GI50 (IGROV-1): > 100 µM (inactive)
GI50 (K562): 25.4 µM (inactive)
GI50 (KM-20L2): 29.2 µM (inactive)
GI50 (KM12): 45.7 µM (inactive)
GI50 (LOX IMVI): 15 µM (inactive)
GI50 (LXFL 529): 23.1 µM (inactive)
GI50 (M14): 65 µM (inactive)
GI50 (M19-MEL): 36.7 µM (inactive)
GI50 (Malme-3M): 64.6 µM (inactive)
GI50 (NCI-H226): > 100 µM (inactive)
GI50 (NCI-H23): 48.2 µM (inactive)
GI50 (NCI-H460): 37.6 µM (inactive)
GI50 (NCI-H522): > 10 µM (inactive)
GI50 (OVCAR-3): 38.2 µM (inactive)
GI50 (OVCAR-4): 42 µM (inactive)
GI50 (OVCAR-5): > 100 µM (inactive)
GI50 (OVCAR-8): 34.3 µM (inactive)
GI50 (RPMI-8226): 20.6 µM (inactive)
GI50 (RXF 393): 28 µM (inactive)
GI50 (RXF 631): 9.91 µM (inactive)
GI50 (SF-268): 54.2 µM (inactive)
GI50 (SF-295): 65.2 µM (inactive)
GI50 (SF-539): > 100 µM (inactive)
GI50 (SK-MEL-28): 55.3 µM (inactive)
GI50 (SK-MEL-2): > 100 µM (inactive)
GI50 (SK-MEL-5): 56.8 µM (inactive)
GI50 (SK-OV-3): 13.9 µM (inactive)
GI50 (SN12C): 35.6 µM (inactive)
GI50 (SNB-19): > 100 µM (inactive)
GI50 (SNB-75): 46.5 µM (inactive)
GI50 (SNB-78): > 100 µM (inactive)
GI50 (SR): 22.5 µM (inactive)
GI50 (SW-620): 23.9 µM (inactive)
GI50 (TK-10): > 100 µM (inactive)
GI50 (U-251): 36.6 µM (inactive)
GI50 (UACC-257): > 100 µM (inactive)
GI50 (UACC-62): 34.9 µM (inactive)
GI50 (UO-31): 36.7 µM (inactive)
GI50 (XF498): 41 µM (inactive)

CN(C)CCc1ccc(Cl)cc1Cl
GI50 (786-0): > 100 µM (inactive)
GI50 (A498): > 100 µM (inactive)
GI50 (A549): > 100 µM (inactive)
GI50 (ACHN): > 100 µM (inactive)
GI50 (CAKI-1): > 100 µM (inactive)
GI50 (CCRF-CEM): > 100 µM (inactive)
GI50 (COLO 205): > 100 µM (inactive)
GI50 (DLD-1): > 100 µM (inactive)
GI50 (DMS-114): > 100 µM (inactive)
GI50 (EKVX): > 100 µM (inactive)
GI50 (HCC 2998): > 100 µM (inactive)
GI50 (HCT-116): > 100 µM (inactive)
GI50 (HCT-15): > 100 µM
GI50 (HL-60): > 100 µM (inactive)
GI50 (HOP-18): > 100 µM (inactive)
GI50 (HOP-62): > 100 µM (inactive)
GI50 (HOP-92): 62.2 µM (inactive)
GI50 (HT-29): > 100 µM (inactive)
GI50 (IGROV-1): > 100 µM (inactive)
GI50 (K562): > 100 µM (inactive)
GI50 (KM-20L2): > 100 µM (inactive)
GI50 (KM12): > 100 µM (inactive)
GI50 (LOX IMVI): > 100 µM (inactive)
GI50 (LXFL 529): > 100 µM (inactive)
GI50 (M14): > 100 µM (inactive)
GI50 (M19-MEL): > 100 µM (inactive)
GI50 (MOLT-4): > 100 µM (inactive)
GI50 (Malme-3M): > 100 µM (inactive)
GI50 (NCI-H23): > 100 µM (inactive)
GI50 (NCI-H460): > 100 µM (inactive)
GI50 (NCI-H522): > 100 µM (inactive)
GI50 (OVCAR-4): > 100 µM (inactive)
GI50 (OVCAR-5): > 100 µM (inactive)
GI50 (OVCAR-8): > 100 µM (inactive)
GI50 (RPMI-8226): > 100 µM (inactive)
GI50 (RXF 393): > 100 µM (inactive)
GI50 (RXF 631): > 100 µM (inactive)
GI50 (SF-268): > 100 µM (inactive)
GI50 (SF-295): > 100 µM (inactive)
GI50 (SF-539): > 100 µM (inactive)
GI50 (SK-MEL-28): > 100 µM (inactive)
GI50 (SK-MEL-2): > 100 µM (inactive)
GI50 (SK-MEL-5): > 100 µM (inactive)
GI50 (SK-OV-3): > 100 µM (inactive)
GI50 (SN12C): > 100 µM (inactive)
GI50 (SNB-19): > 100 µM (inactive)
GI50 (SNB-75): 28.3 µM (inactive)
GI50 (SR): > 100 µM (inactive)
GI50 (SW-620): > 100 µM (inactive)
GI50 (TK-10): > 100 µM (inactive)
GI50 (U-251): > 100 µM (inactive)
GI50 (UACC-257): > 100 µM (inactive)
GI50 (UACC-62): > 100 µM (inactive)
GI50 (UO-31): > 100 µM (inactive)
GI50 (XF498): > 100 µM (inactive)

From ChEMBL document CHEMBL1201862, “PubChem BioAssay data set” (2004)
